Laboratory results published in ChEMBL document CHEMBL3085706, “Scorpiand-like azamacrocycles prevent the chronic establishment of Trypanosoma cruzi in a murine model” (Eur J Med Chem, 2013).
Active and inactive are the calls of the source. No cut-off for these calls is given here.

Columns and labels:
[1] = system: Vero; experiment: Cytotoxicity against African green monkey Vero cells after 72 hrs by flow cytometric analysis; assay type: cell-based; settings: Chlorocebus sabaeus
[2] = system: Trypanosoma cruzi; experiment: (§1) Trypanocidal activity against amastigote form of Trypanosoma cruzi IRHOD/CO/2008/SN3 infected in African green monkey Vero cells assessed as inhibition of amastigotes load per cell at IC25 preincubated for 12 hrs followed by compound washout measured after 10 days by Giemsa staining-based microscopic analysis relative to control; assay type: functional
[3] = Selectivity index, ratio of IC50 for African green monkey Vero cells to IC50 for extracellular epimastigote form of Trypanosoma cruzi IRHOD/CO/2008/SN3; assay type: toxicity, cell-based; settings: read-out: Ratio IC50
[4] = system: Trypanosoma cruzi; experiment: Trypanocidal activity against bloodstream trypomastigote form of Trypanosoma cruzi IRHOD/CO/2008/SN3 infected in BALB/c mouse assessed as reduction of anti-parasitic Ig-G level in serum at 5 mg/kg/day, ip administered for 5 days measured over 40 to 120 days post-infection by ELISA; assay type: functional, organism-based
[5] = system: Trypanosoma cruzi; experiment: Trypanocidal activity against intracellular amastigote form of Trypanosoma cruzi IRHOD/CO/2008/SN3 infected in African green monkey Vero cells after 72 hrs by Giemsa staining assay; assay type: functional, organism-based; settings: IRHOD/CO/2008/SN3, Vero
[6] = system: Trypanosoma cruzi; experiment: Trypanocidal activity against epimastigote form of Trypanosoma cruzi IRHOD/CO/2008/SN3 assessed as inhibition of lactate excretion at IC25 after 96 hrs by NMR spectra analysis; assay type: functional, organism-based
[7] = system: Trypanosoma cruzi; experiment: Trypanocidal activity against bloodstream trypomastigote form of Trypanosoma cruzi IRHOD/CO/2008/SN3 infected in BALB/c mouse assessed as reduction of circulating parasite burden at 5 mg/kg, ip administered for 5 to 10 days measured 22 to 60 days post-infection by Neubauer hemocytometric analysis; assay type: functional, organism-based; design: dose 5 mg/kg
[8] = system: Trypanosoma cruzi; experiment: Trypanocidal activity against epimastigote form of Trypanosoma cruzi IRHOD/CO/2008/SN3 assessed as induction of ethanol production at IC25 after 96 hrs by NMR spectra analysis; assay type: functional, organism-based
[9] = system: Trypanosoma cruzi; experiment: Trypanocidal activity against epimastigote form of Trypanosoma cruzi IRHOD/CO/2008/SN3 assessed as appearance of swollen mitochondria at IC25 after 96 hrs by transmission electron microscopic analysis; assay type: functional, organism-based
[10] = Selectivity index, ratio of IC50 for African green monkey Vero cells to IC50 for extracellular trypomastigote form of Trypanosoma cruzi IRHOD/CO/2008/SN3; assay type: toxicity, cell-based; settings: read-out: Ratio IC50
[11] = Selectivity index, ratio of IC50 for African green monkey Vero cells to IC50 for intracellular amastigote form of Trypanosoma cruzi IRHOD/CO/2008/SN3; assay type: toxicity, cell-based; settings: read-out: Ratio IC50
[12] = system: Trypanosoma cruzi; experiment: Trypanocidal activity against trypomastigote form of Trypanosoma cruzi IRHOD/CO/2008/SN3 infected in African green monkey Vero cells assessed as inhibition of trypomastigotes released in culture medium at IC25 relative to control; assay type: functional
[13] = system: Trypanosoma cruzi; experiment: Trypanocidal activity against epimastigote form of Trypanosoma cruzi IRHOD/CO/2008/SN3 assessed as disorganization of cytoplasm at IC25 after 96 hrs by transmission electron microscopic analysis; assay type: functional, organism-based
[14] = Inhibition of Fe-SOD in Trypanosoma cruzi IRHOD/CO/2008/SN3 epimastigotes assessed as reduction of nitrobluetetrazolium measured for 10 mins by spectrophotometric analysis
[15] = Inhibition of Escherichia coli Mn-SOD assessed as reduction of nitrobluetetrazolium measured for 10 mins by spectrophotometric analysis
[16] = system: Trypanosoma cruzi; experiment: as §1, with “parasite infection rate” for “amastigotes load per cell”; assay type: functional
[17] = system: Trypanosoma cruzi; experiment: Trypanocidal activity against extracellular trypomastigote form of Trypanosoma cruzi IRHOD/CO/2008/SN3 after 24 hrs by Neubauer hemocytometric analysis; assay type: functional, organism-based; settings: IRHOD/CO/2008/SN3, 24 h
[18] = system: Trypanosoma cruzi; experiment: Trypanocidal activity against epimastigote form of Trypanosoma cruzi IRHOD/CO/2008/SN3 assessed as inhibition of alanine excretion at IC25 after 96 hrs by NMR spectra analysis; assay type: functional, organism-based
[19] = system: Trypanosoma cruzi; experiment: Trypanocidal activity against epimastigote form of Trypanosoma cruzi IRHOD/CO/2008/SN3 assessed as inhibition of acetate excretion at IC25 after 96 hrs by NMR spectra analysis; assay type: functional, organism-based
[20] = system: Trypanosoma cruzi; experiment: Inhibition of Fe-SOD in Trypanosoma cruzi IRHOD/CO/2008/SN3 epimastigotes assessed as reduction of nitrobluetetrazolium at 12.5 to 25 uM measured for 10 mins by spectrophotometric analysis relative to control
[21] = system: Trypanosoma cruzi; experiment: Trypanocidal activity against extracellular epimastigote form of Trypanosoma cruzi IRHOD/CO/2008/SN3 after 72 hrs by Neubauer hemocytometric analysis; assay type: functional, organism-based; settings: IRHOD/CO/2008/SN3, 72 h
[22] = system: Trypanosoma cruzi; experiment: Trypanocidal activity against epimastigote form of Trypanosoma cruzi IRHOD/CO/2008/SN3 assessed as inhibition of succinate excretion at IC25 after 96 hrs by NMR spectra analysis; assay type: functional, organism-based
[23] = system: Mus musculus; experiment: Hepatotoxicity in BALB/c mouse infected with bloodstream trypomastigote form of Trypanosoma cruzi IRHOD/CO/2008/SN3 assessed as centrilobular destruction of hepatic vein at 5 mg/kg/day, ip administered for 5 days measured 150 days post-infection by light microscopic analysis; assay type: toxicity, organism-based; design: route intraperitoneal; settings: in vivo, 3600 h
[24] = system: Mus musculus; experiment: Hepatotoxicity in BALB/c mouse infected with bloodstream trypomastigote form of Trypanosoma cruzi IRHOD/CO/2008/SN3 assessed as presence of necrotic cells in portal space at 5 mg/kg/day, ip administered for 5 days measured 150 days post-infection by light microscopic analysis; assay type: toxicity, organism-based; design: route intraperitoneal; settings: in vivo, 3600 h
[25] = system: Mus musculus; experiment: Hepatotoxicity in BALB/c mouse infected with bloodstream trypomastigote form of Trypanosoma cruzi IRHOD/CO/2008/SN3 assessed as lymphocytic infiltration in portal tracts at 5 mg/kg/day, ip administered for 5 days measured 150 days post-infection by light microscopic analysis; assay type: toxicity, organism-based; design: route intraperitoneal; settings: in vivo, 3600 h
[26] = system: Mus musculus; experiment: Hepatotoxicity in BALB/c mouse infected with bloodstream trypomastigote form of Trypanosoma cruzi IRHOD/CO/2008/SN3 assessed as interstitial hemorrhage at 5 mg/kg/day, ip administered for 5 days measured 150 days post-infection by light microscopic analysis; assay type: toxicity, organism-based; design: route intraperitoneal; settings: in vivo, 3600 h
[27] = system: Mus musculus; experiment: Hepatotoxicity in BALB/c mouse infected with bloodstream trypomastigote form of Trypanosoma cruzi IRHOD/CO/2008/SN3 assessed as vessels with thickened walls at 5 mg/kg/day, ip administered for 5 days measured 150 days post-infection by light microscopic analysis; assay type: toxicity, organism-based; design: route intraperitoneal; settings: in vivo
[28] = system: Mus musculus; experiment: Hepatotoxicity in BALB/c mouse infected with bloodstream trypomastigote form of Trypanosoma cruzi IRHOD/CO/2008/SN3 assessed as hepatic destruction in portal space at 5 mg/kg/day, ip administered for 5 days measured 150 days post-infection by light microscopic analysis; assay type: toxicity, organism-based; design: route intraperitoneal; settings: in vivo, 3600 h
[29] = system: Mus musculus; experiment: Hepatotoxicity in BALB/c mouse infected with bloodstream trypomastigote form of Trypanosoma cruzi IRHOD/CO/2008/SN3 assessed as granuloma with lymphocytic infiltrate at 5 mg/kg/day, ip administered for 5 days measured 150 days post-infection by light microscopic analysis; assay type: toxicity, organism-based; design: route intraperitoneal; settings: in vivo, 3600 h
[30] = system: Mus musculus; experiment: Hepatotoxicity in BALB/c mouse infected with bloodstream trypomastigote form of Trypanosoma cruzi IRHOD/CO/2008/SN3 assessed as delocalized hepatic destruction at 5 mg/kg/day, ip administered for 5 days measured 150 days post-infection by light microscopic analysis; assay type: toxicity, organism-based; design: route intraperitoneal; settings: in vivo, 3600 h

Row | SMILES | IC50 [1] | inhibition (INH) [2] | selectivity ratio [3] | Activity [4] | IC50 [5] | Activity [7] | selectivity ratio [10] | selectivity ratio [11] | inhibition (INH) [12] | inhibition (INH) [16] | IC50 [17] | IC50 [21] | further results
1 | Cl.c1ccc(CNCCN2CCNCc3cccc(n3)CNCC2)nc1 | 366 µM | 60% | 42.2 | Active | 10 µM | Active | 20.3 | 36.4 | 82% | 77% | 18 µM | 9 µM | inhibition [6]: Active; Activity [8]: Active; Activity [9]: Active; Activity [13]: Active; IC50 [14]: 8.2 µM; IC50 [15]: 62.5 µM; inhibition [18]: Active; inhibition [19]: Active; inhibition [20]: 100%; inhibition [22]: Active
2 | O=C(Cn1ccnc1[N+](=O)[O-])NCc1ccccc1 [BENZNIDAZOLE] | – | 12% | – | Active | 23 µM | Active | – | – | 27% | 39% | 22.6 µM | – | Activity [23]: Non-toxic; Activity [24]: Toxic; Activity [25]: Non-toxic; Activity [26]: Non-toxic; Activity [27]: Non-toxic; Activity [28]: Toxic; Activity [29]: Toxic; Activity [30]: Toxic
3 | NCCCNCCN1CCNCc2cccc(n2)CNCC1 | 167 µM | – | 8 | – | 20 µM | – | 6.1 | 8.3 | – | – | 27.6 µM | 21 µM | –
